Results reported in the supplement of paper PMC10307832.

Experiments:
Experiment in all cases: relative viability (nuclei count vs DMSO), 5 days (fraction); higher = more cells survive
[1] = compound: CN(c1ncccc1CNc1nc(Nc2ccc3c(c2)CC(=O)N3)ncc1C(F)(F)F)S(C)(=O)=O + CC(=O)Nc1cccc(-n2c(=O)n(C3CC3)c(=O)c3c(Nc4ccc(I)cc4F)n(C)c(=O)c(C)c32)c1 [Trametinib] (partner 0.02 µM)
Procedure, shortened: (§1)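 One day after seeding in 1536-well plates, lung cancer cell lines were dosed by pin tool. Dosing was either single-drug or a fixed anchor-drug dose plus five library-drug doses (not always all listed) in √10 steps. After 5 days, nuclei were stained in one fix-and-stain step and counted on 4× images, and relative viability is the nuclei count of treated wells over that of vehicle wells, given as the median of duplicate plates.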

[2] = compound: CN(c1ncccc1CNc1nc(Nc2ccc3c(c2)CC(=O)N3)ncc1C(F)(F)F)S(C)(=O)=O + C[C@@H](Oc1cc(-c2cnn(C3CCNCC3)c2)cnc1N)c1c(Cl)ccc(F)c1Cl [Crizotinib] (partner 1 µM)
Procedure, shortened: as §1

[3] = compound: CN(c1ncccc1CNc1nc(Nc2ccc3c(c2)CC(=O)N3)ncc1C(F)(F)F)S(C)(=O)=O + N=C(N)NC(=N)NCCc1ccccc1 [Phenformin] (partner 250 µM)
Procedure, shortened: as §1

[4] = compound: CN(c1ncccc1CNc1nc(Nc2ccc3c(c2)CC(=O)N3)ncc1C(F)(F)F)S(C)(=O)=O + COc1cccc2cc(-c3nc([C@H]4CC[C@H](C(=O)O)CC4)n4ncnc(N)c34)[nH]c12 [OSI-027] (partner 0.5 µM)
Procedure, shortened: as §1

| Cell Line | relative viability ([1]; first compound 0.01 µM) | relative viability ([1]; first compound 0.03162 µM) | relative viability ([1]; first compound 0.1 µM) | relative viability ([1]; first compound 0.3162 µM) | relative viability ([1]; first compound 1 µM) | relative viability ([2]; first compound 0.01 µM) | relative viability ([2]; first compound 0.03162 µM) | relative viability ([2]; first compound 0.1 µM) | relative viability ([2]; first compound 0.3162 µM) | relative viability ([2]; first compound 1 µM) | relative viability ([3]; first compound 0.01 µM) | relative viability ([3]; first compound 0.03162 µM) | relative viability ([3]; first compound 0.1 µM) | relative viability ([3]; first compound 0.3162 µM) | relative viability ([3]; first compound 1 µM) | relative viability ([4]; first compound 0.01 µM) | relative viability ([4]; first compound 0.03162 µM) | relative viability ([4]; first compound 0.1 µM) | relative viability ([4]; first compound 0.3162 µM) | relative viability ([4]; first compound 1 µM) |
| --- | --- | --- | --- | --- | --- | --- | --- | --- | --- | --- | --- | --- | --- | --- | --- | --- | --- | --- | --- | --- |
| NCI-H1734 | 0.602 | 0.661 | 0.663 | 0.719 | 0.539 | 0.684 | 0.734 | 0.752 | 0.656 | 0.618 | 0.395 | 0.395 | 0.375 | 0.4 | 0.415 | 0.581 | 0.612 | 0.534 | 0.609 | 0.545 |
| NCI-H1755 | 0.766 | 0.833 | 0.786 | 0.758 | 0.733 | 0.873 | 0.94 | 0.889 | 0.781 | 0.777 | 0.666 | 0.615 | 0.589 | 0.585 | 0.574 | 0.708 | 0.789 | 0.737 | 0.678 | 0.699 |
| NCI-H1792 | 0.407 | 0.632 | 0.433 | 0.594 | 0.42 | 0.936 | 1.01 | 0.971 | 0.938 | 0.961 | 0.258 | 0.297 |  | 0.281 | 0.489 | 0.787 | 0.892 | 0.736 | 0.697 | 0.688 |
| NCI-H1915 | 0.288 | 0.293 | 0.293 | 0.315 | 0.29 | 0.908 | 0.915 | 0.877 | 0.834 | 0.885 | 0.386 | 0.379 | 0.365 | 0.368 | 0.36 | 0.639 | 0.625 | 0.607 | 0.684 | 0.615 |
| NCI-H1944 | 0.412 | 0.45 | 0.39 | 0.449 | 0.412 | 0.998 | 1.11 | 1.08 | 1.08 | 1.06 | 0.22 | 0.201 | 0.193 | 0.19 | 0.216 | 0.401 | 0.445 | 0.38 | 0.453 | 0.439 |
| NCI-H1975 | 0.358 | 0.348 | 0.461 | 0.342 | 0.315 | 0.999 | 0.981 | 0.911 | 0.96 | 0.746 | 0.386 | 0.41 | 0.377 | 0.392 | 0.311 | 0.747 | 0.675 | 0.796 | 0.694 | 0.615 |
| NCI-H1993 | 0.481 | 0.547 | 0.669 | 0.409 | 0.585 | 0.908 | 0.907 | 0.774 | 0.899 | 0.846 | 0.511 | 0.543 | 0.448 | 0.468 | 0.452 | 0.456 | 0.508 | 0.5 | 0.541 | 0.525 |
| NCI-H2009 | 0.25 | 0.263 | 0.246 | 0.29 | 0.286 | 1.01 | 1.06 | 1.06 | 1.02 | 1.04 | 0.525 | 0.483 | 0.502 | 0.413 | 0.504 | 0.714 | 0.617 | 0.607 | 0.663 | 0.671 |
| NCI-H2023 | 0.52 | 0.539 | 0.6 | 0.426 | 0.52 | 0.679 | 0.766 | 0.682 | 0.585 | 0.537 | 0.451 | 0.45 | 0.416 | 0.314 | 0.408 | 0.412 | 0.464 | 0.404 | 0.425 | 0.393 |
| NCI-H2085 | 0.564 | 0.461 | 0.551 | 0.619 | 0.471 | 0.94 | 0.799 | 0.742 | 0.778 | 0.648 | 0.743 | 0.781 | 0.644 | 0.775 | 0.627 | 0.77 | 0.907 | 0.735 | 0.734 | 0.749 |
| NCI-H2087 | 0.137 | 0.233 | 0.199 | 0.196 | 0.224 | 0.787 | 0.915 | 0.784 | 0.889 | 0.749 | 0.522 | 0.518 | 0.424 | 0.475 | 0.454 | 0.513 | 0.766 | 0.594 | 0.659 | 0.585 |
| NCI-H2126 | 0.51 | 0.65 | 0.483 | 0.591 | 0.537 | 1.03 | 1.09 | 0.975 | 0.942 | 0.916 | 0.515 | 0.514 | 0.456 | 0.527 | 0.491 | 0.753 | 0.719 | 0.638 | 0.712 | 0.633 |
| NCI-H2170 | 0.964 | 0.906 | 0.895 | 0.956 | 0.94 | 1.23 | 1.22 | 1.31 |  | 1.21 | 0.404 | 0.47 | 0.424 | 0.332 | 0.323 | 0.672 | 0.695 | 0.679 | 0.791 | 0.752 |
| NCI-H2228 | 0.553 | 0.81 | 0.473 | 0.384 | 0.483 | 0.408 | 0.516 | 0.39 | 0.47 | 0.402 | 0.321 | 0.471 | 0.306 | 0.331 | 0.292 | 0.825 | 0.827 | 0.563 | 0.514 | 0.464 |
| NCI-H2347 | 0.276 | 0.268 | 0.27 | 0.277 | 0.255 | 0.698 | 0.692 | 0.61 | 0.661 | 0.658 | 0.37 | 0.38 | 0.6 | 0.407 | 0.221 | 0.339 | 0.416 | 0.326 | 0.449 | 0.314 |
| NCI-H2405 | 0.633 | 0.676 | 0.596 | 0.596 | 0.584 | 0.865 | 0.835 | 0.801 | 0.813 | 0.744 | 0.402 | 0.376 | 0.385 | 0.248 | 0.392 | 0.617 | 0.676 | 0.572 | 0.51 | 0.533 |
